Among the test systems are HCT-15 colon; HS 578T breast; IGROV1 ovarian; RXF 393 renal; LOX IMVI melanoma; NCI-H226 lung; 786-0 renal; RPMI-8226 leukemia; UO-31 renal; SW-620 colon.
What all share (assay): NCI-60 cell line screen, 48 h

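Compound exposure: 48 hours, 5 concentrations, 96-well plates. GI50 marks 50% less growth. At the TGI there is no net growth.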

Consider `CC(=O)Nc1ccc(-n2cnc3cc(-c4ccc(OCCN5CCCCC5)cc4)ccc32)cc1`, for which the GI50 in the test on HCT-15 colon was 1.54 µM; in the test with HS 578T breast, 4.15 µM; in the test with IGROV1 ovarian, 4.93 µM; in the test with RXF 393 renal, 3.04 µM; in the test with LOX IMVI melanoma, 4.5 µM; with NCI-H226 lung, 2.92 µM. The GI50 with 786-0 renal is 0.803 µM; in the test with RPMI-8226 leukemia, 5.16 µM; in the test with UO-31 renal, 2.33 µM; with SW-620 colon, 0.973 µM. Besides, the TGI was 6.38 µM in the test on HCT-15 colon; 10.8 µM in the test on HS 578T breast; 11.5 µM in the test on IGROV1 ovarian; 8.04 µM with RXF 393 renal; 8.88 µM in the test with LOX IMVI melanoma; 8.43 µM in the test with NCI-H226 lung. Further, the TGI turned out to be 1.7 µM with 786-0 renal, 12.7 µM with RPMI-8226 leukemia, 7.06 µM with UO-31 renal and 2.79 µM in the test with SW-620 colon.

On to `CCCCCCCCCCCCNC(=O)[C@H]1CSC(c2ccc(OC)c(F)c2)N1` (stereo not given in full), for which the GI50 in the test on HCT-15 colon is 1.78 µM; in the test with HS 578T breast, 0.241 µM; in the test on IGROV1 ovarian, 0.325 µM; in the test on RXF 393 renal it was 0.867 µM; in the test on LOX IMVI melanoma, 0.19 µM; with NCI-H226 lung it was 1.42 µM. Moreover, the GI50 is 1.63 µM in the test on 786-0 renal, 2.06 µM with RPMI-8226 leukemia, 1.63 µM with UO-31 renal and 0.87 µM with SW-620 colon. The TGI with HCT-15 colon worked out at 3.39 µM; in the test with HS 578T breast, 0.577 µM; in the test with IGROV1 ovarian it was 0.902 µM; with RXF 393 renal, 2.2 µM; in the test on LOX IMVI melanoma it was 0.398 µM; in the test on NCI-H226 lung it was 3.21 µM. Also, the TGI with 786-0 renal stood at 3.08 µM; with RPMI-8226 leukemia, 4.62 µM; in the test on UO-31 renal, 3.01 µM; with SW-620 colon it was 2.81 µM.

With `N#CC1(C#N)C2C=CC(C3CCC=C32)C1(C#N)C#N` (stereo not given), the TGI with HCT-15 colon, in the test on HS 578T breast, in the test on IGROV1 ovarian, in the test on RXF 393 renal, in the test with LOX IMVI melanoma and in the test on NCI-H226 lung was more than 10 µM throughout. Further, the TGI with 786-0 renal was more than 9.04 µM; in the test on RPMI-8226 leukemia it was 8.79 µM; with UO-31 renal, more than 5.88 µM; in the test on SW-620 colon it was 3.32 µM.

Turning to `COc1ccc(N=C2NN=C(c3c[nH]c4ccccc34)CS2)cc1OC`, the GI50 with HCT-15 colon is 4.02 µM; with HS 578T breast, 5.38 µM; in the test on IGROV1 ovarian, 10.5 µM; in the test on RXF 393 renal it was 6.19 µM; with LOX IMVI melanoma, 6.1 µM; with NCI-H226 lung, 15.9 µM. The GI50 in the test on 786-0 renal is 12 µM; in the test on RPMI-8226 leukemia it was 3.66 µM; in the test on UO-31 renal, 5.81 µM; in the test on SW-620 colon, 5.68 µM. In addition, the TGI was more than 100 µM in the test on HCT-15 colon; more than 100 µM in the test with HS 578T breast; more than 100 µM with IGROV1 ovarian; more than 25.7 µM with RXF 393 renal; more than 100 µM in the test on LOX IMVI melanoma; more than 100 µM in the test with NCI-H226 lung. Further, the TGI with 786-0 renal is more than 91.5 µM; in the test with RPMI-8226 leukemia it was more than 29.6 µM; with UO-31 renal it was more than 100 µM; in the test with SW-620 colon, more than 60.4 µM.

Take `CN(C)c1ccc(Sc2ccc3nc(N)nc(N)c3c2)cc1`: the GI50 in the test with HCT-15 colon is 0.429 µM; in the test on HS 578T breast, 4.72 µM; in the test on IGROV1 ovarian, 0.67 µM; in the test with RXF 393 renal, 1.06 µM; with LOX IMVI melanoma, 0.3 µM; with NCI-H226 lung it was 4.21 µM. Further, the GI50 with 786-0 renal is 0.495 µM; in the test with RPMI-8226 leukemia, 2.92 µM; with UO-31 renal it was 1.12 µM; in the test on SW-620 colon, 0.318 µM. In addition, the TGI with HCT-15 colon came out at 14.2 µM; in the test with HS 578T breast, 27.4 µM; in the test with IGROV1 ovarian, 14.2 µM; in the test on RXF 393 renal, 11.3 µM; with LOX IMVI melanoma, 13.6 µM; in the test with NCI-H226 lung, 18.6 µM. The TGI with 786-0 renal turned out to be 2.5 µM; with RPMI-8226 leukemia it was 10.9 µM; in the test with UO-31 renal, 13.6 µM; in the test with SW-620 colon, 2.1 µM.

Take `OCCCCC#Cc1ccccc1C#Cc1cnccn1`: the GI50 in the test with HCT-15 colon was 33.3 µM; in the test on HS 578T breast, 24.9 µM; in the test with IGROV1 ovarian it was 25.8 µM; in the test on RXF 393 renal it was 15 µM; in the test on LOX IMVI melanoma, 32 µM; with NCI-H226 lung, 40 µM. For the same compound, the GI50 in the test on 786-0 renal is 34.7 µM; in the test with RPMI-8226 leukemia, 26.7 µM; in the test with UO-31 renal, 27 µM; in the test with SW-620 colon it was 62.6 µM. The TGI with HCT-15 colon was more than 100 µM; in the test with HS 578T breast it was 85.1 µM; with IGROV1 ovarian, 96 µM; with RXF 393 renal, 54.2 µM; in the test on LOX IMVI melanoma, more than 100 µM; in the test with NCI-H226 lung, more than 100 µM. The TGI in the test on 786-0 renal, in the test with RPMI-8226 leukemia, in the test with UO-31 renal and in the test with SW-620 colon was more than 100 µM throughout.

Regarding `COC(=O)Nc1nc2ccc(Sc3ccc(NC(=O)Nc4cc(C(F)(F)F)ccc4F)cc3)cc2[nH]1`, the GI50 is 1.62 µM in the test on HCT-15 colon; 1.35 µM in the test on HS 578T breast; 3.52 µM in the test with IGROV1 ovarian; 3.29 µM with RXF 393 renal; 1.5 µM in the test with LOX IMVI melanoma; 3.81 µM in the test with NCI-H226 lung. In addition, the GI50 was 5.64 µM in the test with 786-0 renal, 7.14 µM in the test with RPMI-8226 leukemia, 5.9 µM with UO-31 renal and 1.43 µM with SW-620 colon. The TGI in the test with HCT-15 colon was 8.19 µM; in the test with HS 578T breast, 7.24 µM; in the test with IGROV1 ovarian it was 11.1 µM; with RXF 393 renal, 8.05 µM; with LOX IMVI melanoma, 6.16 µM; with NCI-H226 lung, 20.2 µM. Further, the TGI in the test with 786-0 renal was 13.8 µM; in the test on RPMI-8226 leukemia, 24.1 µM; with UO-31 renal, 19.8 µM; with SW-620 colon it was 5.52 µM.

In the case of `COc1ccc(N(Cc2cc(OC)c(OC)c(OC)c2)C2OC(=O)c3ccccc32)cc1` (stereo not given), the GI50 in the test with HCT-15 colon was 0.424 µM; in the test with HS 578T breast, 0.373 µM; in the test on IGROV1 ovarian, 1.07 µM; with RXF 393 renal it was 0.612 µM; with LOX IMVI melanoma it was 0.712 µM; with NCI-H226 lung, 21.8 µM. Besides, the GI50 with 786-0 renal is 0.701 µM; in the test with RPMI-8226 leukemia, 0.539 µM; with UO-31 renal, 2.3 µM; with SW-620 colon it was 0.374 µM. The TGI in the test on HCT-15 colon, in the test with HS 578T breast, in the test with IGROV1 ovarian, with RXF 393 renal, in the test with LOX IMVI melanoma and in the test with NCI-H226 lung was more than 100 µM in each case. For the same compound, the TGI in the test on 786-0 renal, with RPMI-8226 leukemia, with UO-31 renal and with SW-620 colon was more than 100 µM throughout.
